Measurements taken from US7517884B2 (Kalypsys Inc., priority 1998, dated 2009).

Tests used:
Assay type in all cases: cell-based, murine and human
Details in all cases: GAL4-PPAR LBD chimera
[1] = target: T1, PPAR-delta (UniProt Q03181); experiment: PPAR-delta transactivation assay (GAL4 chimera, luciferase reporter) in CV-1 cells
T1 sequence (Q03181 1-441): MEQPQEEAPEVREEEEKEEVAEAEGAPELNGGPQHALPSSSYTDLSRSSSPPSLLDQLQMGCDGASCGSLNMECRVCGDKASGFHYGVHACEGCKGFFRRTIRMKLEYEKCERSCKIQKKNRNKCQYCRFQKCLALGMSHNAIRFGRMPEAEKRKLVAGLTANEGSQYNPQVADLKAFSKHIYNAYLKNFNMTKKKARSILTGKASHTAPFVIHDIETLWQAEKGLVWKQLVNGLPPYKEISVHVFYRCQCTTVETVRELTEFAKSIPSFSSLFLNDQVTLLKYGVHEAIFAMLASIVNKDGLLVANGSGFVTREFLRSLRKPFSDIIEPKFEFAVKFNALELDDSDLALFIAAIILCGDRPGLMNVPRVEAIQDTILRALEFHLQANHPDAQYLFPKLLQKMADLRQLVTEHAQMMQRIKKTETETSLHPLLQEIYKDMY
Source text: (§1) Compounds may be screened for functional potency in transient transfection assays in CV-1 cells for their ability to activate the PPAR subtypes (transactivation assay). A previously established chimeric receptor system was utilized to allow comparison of the relative transcriptional activity of the receptor subtypes on the same synthetic response element and to prevent endogenous receptor activation from complicating the interpretation of results. See, for example, Lehmann, J. M.; Moore, L. B.; Smith-Oliver, T. A; Wilkinson, W. O.; Willson, T. M.; Kliewer, S. A., An antidiabetic thiazolidinedione is a high affinity ligand for peroxisome proliferator-activated receptor […], J. Biol. Chem., 1995, 270, 12953-6. The ligand binding domains for murine and human PPAR-alpha, PPAR-gamma, and PPAR-delta are each fused to the yeast transcription factor GAL4 DNA binding domain. CV-1 cells were transiently transfected with expression vectors for the respective PPAR chimera along with a reporter construct containing four or five copies of the GAL4 DNA binding site driving expression of luciferase. After 8-16 h, the cells are replated into multi-well assay plates and the media is exchanged to phenol-red free DME medium supplemented with 5% delipidated calf serum. 4 hours after replating, cells were treated with either compounds or 1% DMSO for 20-24 hours. Luciferase activity was then assayed with Britelite (Perkin Elmer) following the manufacturer's protocol and measured with either the Perkin Elmer Viewlux or Molecular Devices Acquest (see, for example, Kliewer, S. A., et. al. Cell 1995, 83, 813-819). Rosiglitazone is used as a positive control in the PPARγ assay. Wy-14643 and GW7647 are used as positive controls in the PPARα assay. GW501516 is used as the positive control in the PPARδ assay.
(§2) Compounds of Examples 1-141 were assayed to measure their biological activity with respect to their EC50 values for modulating PPAR-alpha, PPAR-gamma, and PPAR-delta as set forth in Table 1.

[2] = target: T2, PPAR-alpha (UniProt Q07869); experiment: PPAR-alpha transactivation assay (GAL4 chimera, luciferase reporter) in CV-1 cells
T2 sequence (Q07869 1-468): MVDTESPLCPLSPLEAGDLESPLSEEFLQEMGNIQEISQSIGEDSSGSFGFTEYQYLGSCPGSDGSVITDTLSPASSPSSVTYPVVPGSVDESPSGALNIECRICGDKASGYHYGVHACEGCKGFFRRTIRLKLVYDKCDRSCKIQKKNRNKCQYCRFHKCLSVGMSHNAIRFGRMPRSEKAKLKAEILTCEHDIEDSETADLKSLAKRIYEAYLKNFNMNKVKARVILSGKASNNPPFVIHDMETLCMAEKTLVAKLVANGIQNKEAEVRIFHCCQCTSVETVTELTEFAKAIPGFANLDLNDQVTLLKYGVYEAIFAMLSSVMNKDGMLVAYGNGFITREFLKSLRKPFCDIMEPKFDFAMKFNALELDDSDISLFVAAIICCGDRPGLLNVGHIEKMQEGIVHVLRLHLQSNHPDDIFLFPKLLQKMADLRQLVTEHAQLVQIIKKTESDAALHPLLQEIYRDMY
Source text: as §1, §2

[3] = target: T3, PPAR-gamma (UniProt P37231); experiment: PPAR-gamma transactivation assay (GAL4 chimera, luciferase reporter) in CV-1 cells
T3 sequence (P37231 1-505): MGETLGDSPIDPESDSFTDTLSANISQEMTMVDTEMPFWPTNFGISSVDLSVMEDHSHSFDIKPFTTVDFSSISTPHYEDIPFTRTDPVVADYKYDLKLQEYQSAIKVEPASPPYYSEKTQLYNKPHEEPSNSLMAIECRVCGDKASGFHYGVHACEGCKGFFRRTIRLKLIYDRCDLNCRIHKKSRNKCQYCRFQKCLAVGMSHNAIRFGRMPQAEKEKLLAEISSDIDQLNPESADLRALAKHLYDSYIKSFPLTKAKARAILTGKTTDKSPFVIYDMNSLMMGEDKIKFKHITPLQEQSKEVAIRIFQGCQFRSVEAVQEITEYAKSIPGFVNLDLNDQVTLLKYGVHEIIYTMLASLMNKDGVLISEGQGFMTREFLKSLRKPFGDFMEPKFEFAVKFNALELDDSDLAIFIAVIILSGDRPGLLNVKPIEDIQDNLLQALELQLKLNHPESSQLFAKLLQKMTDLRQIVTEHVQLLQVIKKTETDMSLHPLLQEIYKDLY
Source text: as §1, §2

| Compound | EC50 [1] [µM] | EC50 [2] [µM] | EC50 [3] [µM] |
| --- | --- | --- | --- |
| O=C(O)C1CCc2ccc(S(=O)(=O)N3CCN(c4ccc(C(F)(F)F)cc4)CC3)cc21 (stereo not drawn) [Example 19, 6-[4-(4-trifluoromethyl-phenyl)-piperazine-1-sulfonyl]-indan-1-carboxylic acid] | < 5 | < 5 | < 5 |
| O=C(O)C1CCc2ccc(S(=O)(=O)N3CCN(c4ccc(C(F)(F)F)cn4)CC3)cc21 (stereo not drawn) [Example 20, 6-[4-(5-trifluoromethyl-pyridin-2-yl)-piperazine-1-sulfonyl]-indan-1-carboxylic acid] | < 5 | < 5 | < 5 |
| O=C(O)C1CCc2ccc(S(=O)(=O)N3CCN(c4ccc5c(c4)OCO5)CC3)cc21 (stereo not drawn) [Example 21, 6-(4-Benzo[1,3]dioxol-5-yl-piperazine-1-sulfonyl)-indan-1-carboxylic acid] | 5 to 100 | 5 to 100 | 5 to 100 |
| O=C(O)C1CCc2ccc(S(=O)(=O)N3CC=C(c4ccc(C(F)(F)F)cc4)CC3)cc21 (stereo not drawn) [Example 22, 6-[4-(4-trifluoromethyl-phenyl)-3,6-dihydro-2H-pyridine-1-sulfonyl]-indan-1-carboxylic acid] | < 5 | < 5 | 5 to 100 |
| C[C@H]1CN(c2ccc(C(F)(F)F)cn2)CCN1S(=O)(=O)c1ccc2c(c1)C(C(=O)O)CC2 (stereo partly drawn) [Example 23, 6-[2-(S)-methyl-4-(5-trifluoromethyl-pyridin-2-yl)-piperazine-1-sulfonyl]-indan-1-carboxylic acid] | < 5 | < 5 | < 5 |
| C[C@@H]1CN(c2ccc(C(F)(F)F)cn2)CCN1S(=O)(=O)c1ccc2c(c1)C(C(=O)O)CC2 (stereo partly drawn) [Example 24, 6-[2-(R)-methyl-4-(5-trifluoromethyl-pyridin-2-yl)-piperazine-1-sulfonyl]-indan-1-carboxylic acid] | < 5 | < 5 | < 5 |
| C[C@@H]1CN(S(=O)(=O)c2ccc3c(c2)C(C(=O)O)CC3)CCN1c1ccc(C(F)(F)F)cn1 (stereo partly drawn) [Example 25, 6-[3-(R)-methyl-4-(5-trifluoromethyl-pyridin-2-yl)-piperazine-1-sulfonyl]-indan-1-carboxylic acid] | < 5 | < 5 | < 5 |
| O=C(O)C1CCc2ccc(S(=O)(=O)N3CCN(c4ccc(C(F)(F)F)c(F)c4)CC3)cc21 (stereo not drawn) [Example 26, 6-[4-(3-fluoro-4-trifluoromethyl-phenyl)-piperazine-1-sulfonyl]-indan-1-carboxylic acid] | < 5 | < 5 | < 5 |
| C[C@@H]1CN(c2ccc(C(F)(F)F)cn2)C[C@H](C)N1S(=O)(=O)c1ccc2c(c1)C(C(=O)O)CC2 (stereo partly drawn) [Example 27, 6-[cis-2,6-dimethyl-4-(5-trifluoromethyl-pyridin-2-yl)-piperazine-1-sulfonyl]-indan-1-carboxylic acid] | < 5 | 5 to 100 | 5 to 100 |
| C[C@@H]1CN(c2ccc(C(F)(F)F)cn2)C[C@H](C)N1S(=O)(=O)c1ccc2c(c1)C(C)(C(=O)O)CC2 (stereo partly drawn) [Example 28, 6-[cis-2,6-dimethyl-4-(5-trifluoromethyl-pyridin-2-yl)-piperazine-1-sulfonyl]-1-methyl-indan-1-carboxylic acid] | < 5 | > 100 | 5 to 100 |
| COc1cc2c(cc1S(=O)(=O)N1CCN(c3ccc(C(F)(F)F)cc3)CC1)CCC2CC(=O)O (stereo not drawn) [Example 29, {6-methoxy-5-[4-(4-trifluoromethyl-phenyl)-piperazine-1-sulfonyl]-indan-1-yl}-acetic acid] | 5 to 100 | 5 to 100 | 5 to 100 |
| COc1cc2c(cc1S(=O)(=O)N1CCN(c3ccc(Cl)c(Cl)c3)CC1)CCC2CC(=O)O (stereo not drawn) [Example 30, {5-[4-(3,4-dichloro-phenyl)-piperazine-1-sulfonyl]-6-methoxy-indan-1-yl}-acetic acid] | 5 to 100 | 5 to 100 | 5 to 100 |
| O=C(O)Cn1ccc2cc(S(=O)(=O)N3CCN(c4ccc(C(F)(F)F)cc4)CC3)ccc21 [Example 31, {5-[4-(4-Trifluoromethyl-phenyl)-piperazine-1-sulfonyl]-indol-1-yl}-acetic acid] | 5 to 100 | > 100 | > 100 |
| O=C(O)Cn1ccc2cc(Br)c(S(=O)(=O)N3CCN(c4ccc(C(F)(F)F)cc4)CC3)cc21 [Example 32, {5-Bromo-6-[4-(4-trifluoromethyl-phenyl)-piperazine-1-sulfonyl]-indol-1-yl}-acetic acid] | < 5 | > 100 | 5 to 100 |
| O=C(O)Cn1ccc2cc(Br)c(S(=O)(=O)N3CCN(c4ccc(C(F)(F)F)cn4)CC3)cc21 [Example 33, {5-Bromo-6-[4-(5-trifluoromethyl-pyridin-2-yl)-piperazine-1-sulfonyl]-indol-1-yl}-acetic acid] | < 5 | > 100 | 5 to 100 |
| O=C(O)Cn1ccc2ccc(S(=O)(=O)N3CCN(c4ccc(C(F)(F)F)cc4)CC3)cc21 [Example 34, {6-[4-(4-Trifluoromethyl-phenyl)-piperazine-1-sulfonyl]-indol-1-yl}-acetic acid] | < 5 | > 100 | 5 to 100 |
| O=C(O)Cn1ccc2ccc(S(=O)(=O)N3CCN(c4ccc(C(F)(F)F)cn4)CC3)cc21 [Example 35, {6-[4-(5-trifluoromethyl-pyridin-2-yl)-piperazine-1-sulfonyl]-indol-1-yl}-acetic acid] | < 5 | 5 to 100 | 5 to 100 |
| COc1ccc2c(CC(=O)O)csc2c1S(=O)(=O)N1CCN(c2ccc(C(F)(F)F)cn2)CC1 [Example 36, {6-Methoxy-7-[4-(5-trifluoromethyl-pyridin-2-yl)-piperazine-1-sulfonyl]-benzo[b]thiophen-3-yl}-acetic acid] | > 100 | > 100 | 5 to 100 |
| O=C(O)Cc1csc2ccc(S(=O)(=O)N3CCN(c4ccc(C(F)(F)F)cn4)CC3)cc12 [Example 37, {5-[4-(5-Trifluoromethyl-pyridin-2-yl)piperazine-1-sulfonyl]-benzo[b]thiophen-3-yl}-acetic acid] | < 5 | 5 to 100 | < 5 |
| CC1(C)CN(c2ccc(C(F)(F)F)cn2)CCN1S(=O)(=O)c1ccc2c(c1)C(C(=O)O)CC2 (stereo not drawn) [Example 38, 6-[2,2-Dimethyl-4-(5-trifluoromethyl-pyridin-2-yl)-piperazine-1-sulfonyl]-indan-1-carboxylic acid] | < 5 | < 5 | < 5 |
